Reference: article PMC11117309
Non-standard residues stand in square brackets, D forms with d. Residues, ends and D or L forms follow the SMILES beside them.

With `CC[C@@H](C)[C@@H](NC(=O)[C@@H](C)NC(=O)[C@@H](CCC(=O)O)NC(=O)[C@H](NC(=O)[C@@H](CC(C)C)NC(=O)[C@@H](CCC(=O)O)NC(=O)CNC(=O)[C@@H](C)NC(=O)[C@@H](C)NC(=O)[C@@H](CC(C)C)NC(=O)[C@H](NC(=O)[C@@H](Cc1ccccc1)NC(=O)[C@@H](CC(C)C)NC(=O)[C@@H](CCC(=O)O)NC(=O)[C@@H](CC(C)C)NC(=O)[C@@H](Cc1ccccc1)NC(=O)[C@@H](C)NC(=O)[C@@H](CCCCN)NC(=O)CNC(=O)[C@H](N)CCCNC(=N)N)[C@H](C)CC)[C@H](C)CC)C(=O)N[C@H](CC(=O)O)C(=O)N[C@H](CCCNC(=N)N)C(=O)N[C@@H](C(=O)N[C@H](Cc1ccccc1)C(=O)N[C@@H](C(=O)NCC(=O)N[C@H](CCC(=O)O)C(=O)N[C@H](C)C(=O)N[C@H](Cc1c[nH]cn1)C(=O)O)[C@H](C)O)[C@H](C)O` (H-[dR]G[dK][dA][dF][dL][dE][dL][dF][dI][dL][dA][dA]G[dE][dL][dI][dE][dA][dI][dD][dR][dT][dF][dT]G[dE][dA][dH]-OH) as the molecule, how does the peptide remaining after proteinase K exposure read?
Its peptide remaining after proteinase K exposure is greater than 88%.
